Source: PMC5947527 (Chemical Science, 2015)
Entries after “also recorded” stand apart in the source; their conditions may differ. Non-standard residues stand in square brackets, D forms with d. Residues, ends and D or L forms follow the SMILES beside them. *: point of attachment. NBD = O=[N+]([O-])c1ccc(*)c2nonc12; Nle = CCCC[C@H](N)C(=O)O; Ahx = NCCCCCC(=O)O

How the values were obtained:
[1] = tested on: methicillin-sensitive Staphylococcus aureus; experiment: Confocal labelling of MSSA with quantified fluorescence; assay type: cell-based
Procedure: Fig. 6 Confocal Images of compounds UBI-3 to 9 with quantified fluorescence. Panels show methicillin-sensitive Staphylococcus aureus incubated with UBI-3 to 9 (all 10 μM) with quantification of bacterial fluorescence normalized to UBI-3 (bars represent mean (±SEM), n ≥ 3, ns = not significant, *** = p < 0.001, * = p < 0.05, scale bar = 10 μm).
Fig. 8 Confocal images and quantification of cyclic variants when compared to UBI-3. Panels show methicillin-sensitive Staphylococcus aureus incubated with cyclic UBI compounds (all 10 μM) with quantification of bacterial fluorescence normalized to UBI-3 (bars represent mean (±SEM), n ≥ 3, ns = not significant, ** = p < 0.01, scale bar = 10 μm).
Bacterial Culture and Labelling: Bacteria used were K. pneumoniae (ATCC BAA1706) ATCC, E. coli (ATCC 25922) ATCC, A. baumannii (J3433) Clinical Isolate, P. aeruginosa (J3284) Clinical Isolate, Methicillin Resistant S. aureus (MRSA) (ATCC25923) ATCC and Methicillin Sensitive S. aureus (MSSA) (ATCC 252) ATCC. All bacteria were grown on Lysogeny broth (LB) agar and from a single bacterial colony placed into 10ml of LB and incubated at 37°C for 16 hours in an orbital shaker.
Cultures were centrifuged at 4000rpm for 5 minutes and the pellet resuspended in 1ml phosphate buffered saline (PBS, Life Technologies). Following three further washes in PBS the cultures were reconstituted to 1 OD595 nm. Bacteria were counterstained with 5µM Syto 82 orange fluorescent nucleic acid stain (Invitrogen, CA, USA) in a shaking heat block at 37 °C for 20 minutes. For FCFM bacteria were stained with 1µM Calcein AM (Sigma, MO, USA) for 30 minutes at 37 °C. Counterstained bacteria were washed in PBS to remove excess dye. […]
(§1) Confocal Analysis and Fluorescence Quantification: 8-Well Lab-Tek II Confocal Chambers (VWR, PA, USA) were coated in fibronectin (for neutrophil experiments) or poly-d-lysine (for bacteria) at 37 °C for 20 minutes, then washed in PBS prior to bacterial innoculation. For co-culture assays, neutrophils were seeded on fibronectin coated wells at 1 x 10^5 neutrophils per well for 20 minutes and non-adherent neutrophils aspirated. Bacteria were added to each chamber to a final concentration of 0.5 OD595 nm with the desired final concentration of Smartprobe. A laser-scanning confocal imaging system (LSM510; Carl Zeiss, Jena, Germany), incorporating an upright Axioskop FS2 microscope (63× objective) was used for image acquisition and processing. Exposure to 488 nm light was limited to 5% of the maximum laser power in order to minimize toxicity. ‘Green’ fluorescence (for FAM and NBD) was excited with a dedicated 488 nm line and emitted light detected with meta detector (500-530 nM).
(§2) Syto nuclear and dyes were excited with a dedicated 543 nm line, and emitted light detected with meta detector (570-610 nM). Fields of view were chosen based on the counterstain and at least three fields of view were recorded for each condition. For affinity assays, following initial imaging, the fluid was aspirated and two gentle washes with PBS were performed. The chamber was re-imaged on confocal.
(§3) Analysis was with ImageJ (version 1.46r, National Institutes of Health, USA); the Syto channel was automatically thresholded (MaxEntropy, with a set threshold 0-47) and an ROI generated from this. The […]
(§4) mean fluorescence intensity on the probe channel within this ROI was quantified. Data presented represents the mean of three experiments, from each of which three separate fields of view were assessed. All experiments were performed at least three times unless otherwise stated and results expressed as mean ± SEM. Data was analysed by unpaired t-test and significance was determined as p<0.05 (GraphPad Prism version 5.01 for Windows, GraphPad Software, San Diego California USA).
Ex vivo Human Lung and FCFM Procedure: Human lung samples were obtained from patients undergoing surgical resection for lung carcinoma. All images were obtained on sections of normal lung […]

[2] = tested on: bacteria in ex vivo human lung tissue; experiment: Fibered confocal fluorescence microscopy (FCFM) of labelled bacteria on ex vivo human lung tissue; conditions: 10 μM, bacteria pre-labelled, 488 nm FCFM, n = 3
Procedure: Since NBD is also excited at 488 nm, the utility and detection of the Smartprobes with FCFM was next evaluated. […] These were then delivered onto ex vivo human lung tissue fragments.
Fig. 10 UBI-10 can be used to image bacteria in ex vivo human lung tissue by fibered confocal fluorescence microscopy (FCFM). FCFM imaging of bacteria in suspension (upper panels) or when co-incubated with ex vivo human lung tissue (lower panels). […] All compounds at 10 μM, n = 3. […]
as §4
(§5) Ex vivo Human Lung and FCFM Procedure: Human lung samples were obtained from patients undergoing surgical resection for lung carcinoma. All images were obtained on sections of normal lung away from the cancerous growth. Informed consent was obtained and the study was approved by the Regional Ethics Committee. Samples were taken fresh from the operating theatre, dissected into 4mm sections and placed in wells of 96 well plate. […]

[3] = tested on: Methicillin sensitive S. aureus, K. pneumoniae and P. aeruginosa; experiment: Bacterial affinity: fluorescence retention following a PBS wash (confocal); assay type: cell-based; conditions: 10 µM, two gentle PBS washes, three bacterial species, n=3
Procedure: Three compounds (UBI-3, UBI-5 and UBI-10) were assessed for further evaluation. […] In vitro affinity of bacterial binding was assessed by incorporating a wash step in the live confocal imaging protocol with a panel of bacteria with the ‘wash-off’ representing a surrogate indicator of Smartprobe-bacterial labelling affinity. […] UBI-10, therefore, was assessed further in a clinically relevant biological system.
Figure S4. Quantified fluorescence of confocal microscopy images of the compounds UBI-3, UBI-5 and UBI-10 on three bacteria and fluorescence retention following a PBS wash. Quantification of fluorescence intensity of (A) Methicillin sensitive S. aureus, (B) K. pneumoniae and (C) and P. […]
intensity following a PBS wash. […]
as §1, §2, §3, §4
as §5, with “plate. Bacteria were pre-labelled with Smartprobe or Calcein AM and co-cultured in the well with a maximum volume of 100µl.” for “plate.”

[4] = 0.5 μM to 50 μM, methicillin sensitive S. aureus

| SMILES | concentration dependence of bacterial labelling [1, 4] | detection of labelled bacteria by FCFM on ex vivo human lung tissue [2] | fluorescence following labelling and a PBS wash [3] | relative fluorescence of labelled bacteria compared with the other compounds [1, 4] | bacterial labelling (fluorescence compared with UBI-3) ([1]; MSSA, 10 μM, fluorescence normalized to UBI-3, mean ± SEM, n ≥ 3) |
| --- | --- | --- | --- | --- | --- |
| CCCC[C@H](NC(=O)[C@H](CCCNC(=N)N)NC(=O)[C@H](CCCNC(=N)N)NC(=O)[C@H](CCCCN)NC(=O)[C@H](C)NC(=O)[C@H](CCCNC(=N)N)NC(=O)CNC(=O)[C@@H](NC(=O)CCCCCNc1ccc([N+](=O)[O-])c2nonc12)[C@@H](C)O)C(=O)N[C@@H](CCC(N)=O)C(=O)N[C@@H](Cc1ccc(O)cc1)C(=O)N[C@@H](CC(N)=O)C(=O)N[C@@H](CCCNC(=N)N)C(=O)N[C@@H](CCCNC(=N)N)C(N)=O [UBI-3] ({NBD-Ahx}-TGRAKRR[Nle]QYNRR-NH2) | concentration dependent manner; also recorded: concentration dependent increase in bacterial fluorescence | immediately lost their fluorescent signal; also recorded: can image bacteria in suspension but not in the presence of ex vivo human lung | significantly lower fluorescence |  |  |
| CCCC[C@@H]1NC(=O)[C@H](CCCNC(=N)N)NC(=O)[C@H](CCCNC(=N)N)NC(=O)[C@H](CCCCN)NC(=O)[C@H](C)NC(=O)[C@H](CCCNC(=N)N)NC(=O)CNC(=O)[C@H]([C@@H](C)O)NC(=O)[C@@H](NC(=O)CCCCCNc2ccc([N+](=O)[O-])c3nonc23)CCCCNC(=O)CNC(=O)[C@H](CCCNC(=N)N)NC(=O)[C@H](CCCNC(=N)N)NC(=O)[C@H](CC(N)=O)NC(=O)[C@H](Cc2ccc(O)cc2)NC(=O)[C@H](CCC(N)=O)NC1=O [UBI-10] | concentration dependent manner; also recorded: concentration dependent increase in bacterial fluorescence | readily identified above elastin autofluorescence; also recorded: can image bacteria by FCFM in the presence of ex vivo human lung | retains a significant fluorescence intensity | higher than UBI-3 or UBI-5 labelled bacteria; also recorded: higher fluorescence (per molar equivalents) at all concentrations tested | significantly higher signal; also recorded: improved bacterial labelling |
